Laboratory results reported in ChEMBL document CHEMBL4190365, “Synthesis and antiproliferative properties of new hydrophilic esters of triterpenic acids” (Eur J Med Chem, 2017).
Calls of active or inactive are those of the source. No cut-off for these calls is given here.

Tests used:
[1] = test system: G-361; assay: Induction of apoptosis in human G361 cells assessed as induction of caspase-3 expression at 1 uM incubated for 24 hrs by Western blot method; assay type: functional, cell-based
[2] = test system: G-361; assay: Induction of apoptosis in human G361 cells assessed as induction of PARP cleavage at 10 uM incubated for 24 hrs by Western blot method; assay type: functional, cell-based
[3] = test system: G-361; assay: Induction of apoptosis in human G361 cells assessed as reduction Mcl1 protein levels at 1 uM incubated for 24 hrs by Western blot method; assay type: functional, cell-based
[4] = test system: G-361; assay: Induction of cell cycle arrest in human G361 cells assessed as increase in accumulation at subG1 phase at 10 uM incubated for 24 hrs by propidium iodide staining based flow cytometry; assay type: functional
[5] = test system: G-361; assay: Induction of cell cycle arrest in human G361 cells assessed as reduction in accumulation at G2M phase at 1 uM incubated for 24 hrs by propidium iodide staining based flow cytometry; assay type: functional
[6] = test system: G-361; assay: Induction of apoptosis in human G361 cells assessed as induction of caspase-7 degradation in to cleaved fragments at 10 uM incubated for 24 hrs by Western blot method; assay type: functional, cell-based
[7] = test system: G-361; assay: Induction of cell cycle arrest in human G361 cells assessed as increase in accumulation at G0/G1 phase at 10 uM incubated for 24 hrs by propidium iodide staining based flow cytometry; assay type: functional
[8] = test system: G-361; assay: Induction of cell cycle arrest in human G361 cells assessed as reduction in accumulation at G2M phase at 10 uM incubated for 24 hrs by propidium iodide staining based flow cytometry; assay type: functional
[9] = test system: HeLa; assay: Cytotoxicity in human HeLa cells assessed as reduction in cell viability incubated for 72 hrs by calcein AM cytotoxicity assay; assay type: functional, cell-based; details: Homo sapiens, HeLa, 72 h
[10] = test system: G-361; assay: Induction of apoptosis in human G361 cells assessed as effect on Bcl2 protein levels at 10 uM incubated for 24 hrs by Western blot method; assay type: functional, cell-based
[11] = test system: G-361; assay: Induction of cell cycle arrest in human G361 cells assessed as increase in accumulation at subG1 phase at 1 uM incubated for 24 hrs by propidium iodide staining based flow cytometry; assay type: functional
[12] = test system: G-361; assay: Induction of apoptosis in human G361 cells assessed as induction of caspase-3 expression at 10 uM incubated for 24 hrs by Western blot method; assay type: functional, cell-based
[13] = test system: CCRF-CEM; assay: Cytotoxicity in human CEM cells assessed as reduction in cell viability incubated for 72 hrs by calcein AM cytotoxicity assay; assay type: functional, cell-based
[14] = test system: MCF7; assay: Cytotoxicity in human MCF7 cells assessed as reduction in cell viability incubated for 72 hrs by calcein AM cytotoxicity assay; assay type: functional, cell-based; details: Homo sapiens, MCF7, 72 h
[15] = test system: G-361; assay: Induction of apoptosis in human G361 cells assessed as increase in caspase3/7 activity at 1 uM using Ac-DEVD-AMC substrate incubated for 24 hrs by fluorometric assay relative to untreated control; assay type: functional
[16] = test system: BJ; assay: Cytotoxicity in human BJ cells assessed as reduction in cell viability incubated for 72 hrs by calcein AM cytotoxicity assay; assay type: functional, cell-based; details: Homo sapiens, BJ, 72 h
[17] = test system: G-361; assay: Induction of apoptosis in human G361 cells assessed as reduction Mcl1 protein levels at 10 uM incubated for 24 hrs by Western blot method; assay type: functional, cell-based
[18] = test system: G-361; assay: Induction of apoptosis in human G361 cells assessed as induction of caspase-7 degradation in to cleaved fragments at 1 uM incubated for 24 hrs by Western blot method; assay type: functional, cell-based
[19] = test system: G-361; assay: Induction of cell cycle arrest in human G361 cells assessed as increase in accumulation at G0/G1 phase at 1 uM incubated for 24 hrs by propidium iodide staining based flow cytometry; assay type: functional
[20] = test system: G-361; assay: Induction of apoptosis in human G361 cells assessed as reduction total Rb protein levels at 10 uM incubated for 24 hrs by Western blot method; assay type: functional, cell-based
[21] = test system: G-361; assay: Cytotoxicity in human G361 cells assessed as reduction in cell viability incubated for 72 hrs by calcein AM cytotoxicity assay; assay type: functional, cell-based; details: Homo sapiens, G-361, 72 h
[22] = test system: G-361; assay: Induction of apoptosis in human G361 cells assessed as effect on Bcl2 protein levels at 1 uM incubated for 24 hrs by Western blot method; assay type: functional, cell-based
[23] = test system: G-361; assay: Induction of apoptosis in human G361 cells assessed as increase in caspase3/7 activity at 10 uM using Ac-DEVD-AMC substrate incubated for 24 hrs by fluorometric assay relative to untreated control; assay type: functional

Question: CC(=O)O[C@H]1CC[C@]2(C)[C@H]3CC[C@@H]4C5=C(C(C)C)C(=O)C[C@]5(C(=O)OCC(=O)OCc5ccccc5)CC[C@@]4(C)[C@]3(C)CC[C@H]2C1(C)C was tested. Which Activity [1] did it give?
Answer: inactive

Question: What about the Activity [2] of the same compound?
Answer: Active

Question: And the Activity [3]?
Answer: Active

Question: And the Activity [4]?
Answer: Active

Question: And the Activity [5]?
Answer: Active

Question: What about the Activity [6] of the same compound?
Answer: Active

Question: What about the Activity [7] of the same compound?
Answer: Active

Question: What about the Activity [8] of the same compound?
Answer: Active

Question: What about the IC50 [9] of the same compound?
Answer: 2.8 µM

Question: What about the Activity [10] of the same compound?
Answer: inactive

Question: And the Activity [11]?
Answer: Active

Question: And the Activity [12]?
Answer: inactive

Question: What about the IC50 ([13]; Homo sapiens, CCRF-CEM, 72 h) of the same compound?
Answer: 6 µM

Question: What about the IC50 [14] of the same compound?
Answer: 1.8 µM

Question: And the “fold change (FC)” value [15]?
Answer: 3

Question: And the IC50 [16]?
Answer: > 50 µM

Question: What about the Activity [17] of the same compound?
Answer: Active

Question: What about the Activity [18] of the same compound?
Answer: Active

Question: And the Activity [19]?
Answer: Active

Question: And the Activity [20]?
Answer: Active

Question: What about the IC50 [21] of the same compound?
Answer: 1.6 µM

Question: What about the Activity [22] of the same compound?
Answer: inactive

Question: CC(=O)O[C@H]1CC[C@]2(C)[C@H]3CC[C@@H]4C5=C(C(C)C)C(=O)C[C@]5(C(=O)OCCN5CCCCC5)CC[C@@]4(C)[C@]3(C)CC[C@H]2C1(C)C [listing 1 of 2 here] was tested. Which IC50 [9] did it give?
Answer: 8.7 µM

Question: What about the IC50 ([13]; ccrf-cem) of the same compound?
Answer: 16.2 µM

Question: And the IC50 [14]?
Answer: 7 µM

Question: What about the IC50 [16] of the same compound?
Answer: 49.1 µM

Question: What about the IC50 [21] of the same compound?
Answer: 7 µM

Question: What about the “fold change (FC)” value [23] of the same compound?
Answer: <=4

Question: What does the source list for C=C(C)[C@@H]1CC[C@]2(C(=O)O[C@@H]3O[C@H](COC(C)=O)[C@H](OC(C)=O)[C@H](OC(C)=O)[C@H]3OC(C)=O)CC[C@]3(C)[C@H](CC[C@@H]4[C@@]5(C)CC[C@H](O)C(C)(C)[C@@H]5CC[C@]43C)[C@@H]12?
Answer: Activity [1]: inactive; Activity [2]: Active; Activity [3]: Active; Activity [4]: Active; Activity [5]: Active; Activity [6]: Active; Activity [7]: Active; Activity [8]: Active; IC50 [9]: 3.3 µM; Activity [10]: inactive; Activity [11]: Active; Activity [12]: inactive; IC50 ([13]; Homo sapiens, CCRF-CEM, 72 h): 9 µM; IC50 [14]: 2.5 µM; Activity [15]: inactive; IC50 [16]: > 50 µM; Activity [17]: Active; Activity [18]: Active; Activity [19]: Active; Activity [20]: Active; IC50 [21]: 3.4 µM; Activity [23]: inactive; Activity [22]: inactive

Question: With CC(=O)O[C@H]1CC[C@]2(C)[C@H]3CC[C@@H]4C5=C(C(C)C)C(=O)C[C@]5(C(=O)OCCN5CCCCC5)CC[C@@]4(C)[C@]3(C)CC[C@H]2C1(C)C [listing 2 of 2 here] as the compound, how does the Activity [1] read?
Answer: inactive

Question: And the Activity [2]?
Answer: Active

Question: And the Activity [3]?
Answer: Active

Question: What about the Activity [4] of the same compound?
Answer: Active

Question: What about the Activity [5] of the same compound?
Answer: Active

Question: And the Activity [7]?
Answer: Active

Question: What about the Activity [8] of the same compound?
Answer: Active

Question: And the Activity [10]?
Answer: inactive

Question: And the Activity [11]?
Answer: Active

Question: What about the Activity [12] of the same compound?
Answer: inactive

Question: What about the Activity [17] of the same compound?
Answer: Active

Question: What about the Activity [19] of the same compound?
Answer: Active

Question: What about the Activity [20] of the same compound?
Answer: Active

Question: And the Activity [22]?
Answer: inactive
